What was measured:
[1] = Add-on rates of quaternary ammonium salts on dyed and undyed nylon fabrics and weight loss after Launder-Ometer washing; type: physicochemical; details: for Add-on rate after 7 washes (%): Launder-Ometer, AATCC test method 61; for Total weight loss after the + 7 washes (%): after finishing and 7 Launder-Ometer washes
Experimental: Nylon fabrics were dyed with 1% on weight fabric (o.w.f.) dye solutions at 95° C. for 90 min. The liquor ratio was 1:50, and the pH of the dye bath was adjusted to pH=3.5 with acetic acid. The dyed fabrics were washed with the AATCC standard detergent after dyeing and then cured at 120° C. for 15 minutes.
The antibacterial finishing baths were prepared by dissolving quaternary ammonium salts in distilled water. The pH value was adjusted to pH=4 with acetic acid. The dyed nylon fabric was dipped in the antibacterial agent solution, padded to a wet pick up of about 60% and cured at an elevated temperature for an extended period.
The finished fabric was washed in a Launder-Ometer, according to AATCC Test Method 61-1994 to evaluate the washing durability. One cycle of Launder-Ometer washing test by this AATCC Test Method is equivalent to about five machine washes in a home laundry practice.
The nylon fabrics were first dyed with two different acid dyes at concentration of 1% on weight fabric (o.w.f) and then treated with the quaternary ammonium salts.
The weight loss of a fabric sample is calculated based on its total weight change after the finishing and washing.

[2] = as above; type: physicochemical; details: 6% quaternary salt solution, pH = 3.7, cured 120° C. 30 minutes
[3] = nylon fabric dyed with Acid Blue 113 1% owf
[4] = nylon fabric dyed with Acid Red 88 1% owf

Row | SMILES | Add-on rate after 7 washes (%) ([1]; Undyed nylon fabric) | Total weight loss after the + 7 washes (%) ([1]; Undyed nylon fabric) | Add-on rate after 7 washes (%) [1, 3] [%] | Total weight loss after the + 7 washes (%) [1, 3] [%] | Add-on rate after 7 washes (%) [1, 4] [%] | Total weight loss after the + 7 washes (%) [1, 4] [%] | Add-on rate (%) ([2]; Undyed nylon fabric) | Add-on rate (%) [2, 3] [%] | Add-on rate (%) [2, 4] [%]
1 | CCCCCCCCCCCC[N+](C)(C)C.[Br-] [DTAB, Dodecyltrimethyl ammonium bromide] | −3.51 | −1.00 | −3.48 | 0.28 | −3.39 | −0.04 | 2.51 | 3.86 | 3.35
2 | CCCCCCCCCCCC[N+](C)(C)CC(O)C[N+](C)(C)CCCCCCCCCCCC.[Cl-].[Cl-] [Dimer, 1,3-Bis-(N,N-dimethyldodecylammonium chloride)-2-propanol] | −3.20 | −0.47 | −2.54 | −0.25 | −3.08 | −0.09 | 2.73 | 2.29 | 2.99
3 | CCCCCCCCCCCC[N+](C)(C)CC(O)CCl.[Cl-] (stereo not drawn) [Monomer, N-(3-chloro-2-hydroxypropyl)-N,N-dimethyldodecylammonium chloride] | −1.81 | −0.73 | −2.44 | −0.43 | −1.87 | −0.09 | 1.08 | 2.01 | 1.78

Source: patent US6436419B1, “Antimicrobial treatment of polymers” (The Regents of the University of California, priority 1998, dated 2002)
